From patent publication US8440632B2, “Protopanaxadiol-type ginsenoside compositions and uses thereof” (Raptor Therapeutics Inc., priority 2008, dated 2013)

Columns and labels:
[1] = tested on: alcohol dehydrogenase (ADH); test: Alcohol dehydrogenase (ADH) activity, colorimetric assay; assay type: biochemical; conditions: 5, 50 or 500 μg/mL, relative to ADH activity in the absence of ginsenoside (FIG. 1)
Protocol: Ginsenosides Rb1, Rb2, Rc, Rd, Re and Rg1 were obtained from ChromaDex Inc., Irvine, Calif., USA. The ginsenosides were dissolved in DMSO to prepare a stock solution. Prior to performing an activity assay, portions of a ginsenosides stock solution were diluted in aqueous reaction buffer solution and from which samples were taken and assayed for activity.
ADH activity was measured in a colorimetric assay as described in Gibla and Gonzalex-Durante, J. Biochem. Biophys. Methods 1993, 26, 87-93, the contents of which are incorporated by reference herein in its entirety.

[2] = molecular target: T1, aldehyde dehydrogenase (ALDH) (Saccharomyces cerevisiae, UniProt P46367); test: Aldehyde dehydrogenase (ALDH) activity assay, conversion of acetaldehyde into acetic acid; assay type: biochemical; conditions: 5, 50 or 500 μg/mL, relative to ALDH activity in the absence of ginsenoside (FIG. 3)
T1 construct: purchased Sigma-Aldrich A 6338
T1 sequence (P46367 25-519): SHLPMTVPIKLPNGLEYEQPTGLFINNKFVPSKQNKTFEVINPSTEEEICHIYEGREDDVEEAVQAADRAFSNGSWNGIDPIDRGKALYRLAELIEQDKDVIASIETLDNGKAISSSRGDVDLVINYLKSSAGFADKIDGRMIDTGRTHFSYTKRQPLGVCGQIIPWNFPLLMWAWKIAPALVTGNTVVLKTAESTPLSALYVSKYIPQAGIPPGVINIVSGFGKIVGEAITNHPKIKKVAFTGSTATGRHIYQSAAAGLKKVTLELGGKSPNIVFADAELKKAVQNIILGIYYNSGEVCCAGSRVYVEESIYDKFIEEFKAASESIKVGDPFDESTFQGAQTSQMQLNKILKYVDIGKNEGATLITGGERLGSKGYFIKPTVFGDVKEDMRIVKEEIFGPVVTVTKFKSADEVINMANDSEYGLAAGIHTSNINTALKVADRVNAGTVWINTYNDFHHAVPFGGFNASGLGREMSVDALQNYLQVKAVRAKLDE
Protocol: Stock solutions of ginsenosides Rb1, Rb2, Rc, Rd, Re and Rg1 in DMSO as described above, were prepared. ALDH was obtained from Sigma-Aldrich (product no. A 6338). Enzyme activity assays were performed in vitro according to instructions supplied by the vendor as modified by the addition of test substances, which is based on assay described in Bostian et al., Biochemical Journal 1978, 173, 773-786, the contents of which are incorporated by reference herein in their entirety. This assay measures the conversion of acetaldehyde into acetic acid via […] by ALDH catalysis.

## CC(C)=CCC[C@](C)(O[C@@H]1O[C@H](CO[C@@H]2O[C@H](CO)[C@@H](O)[C@H](O)[C@H]2O)[C@@H](O)[C@H](O)[C@H]1O)[C@H]1CC[C@]2(C)[C@@H]1[C@H](O)C[C@@H]1[C@@]3(C)CC[C@H](O[C@@H]4O[C@H](CO)[C@@H](O)[C@H](O)[C@H]4O[C@@H]4O[C@H](CO)[C@@H](O)[C@H](O)[C@H]4O)C(C)(C)[C@@H]3CC[C@]12C [ginsenoside Rb1]
[1]
  effect on ADH activity: reduced ADH activity
[2]
  effect on ALDH activity: increased ALDH activity

## CC(C)=CCC[C@](C)(O[C@@H]1O[C@H](CO[C@@H]2OC[C@H](O)[C@H](O)[C@H]2O)[C@@H](O)[C@H](O)[C@H]1O)[C@H]1CC[C@]2(C)[C@@H]1[C@H](O)C[C@@H]1[C@@]3(C)CC[C@H](O[C@@H]4O[C@H](CO)[C@@H](O)[C@H](O)[C@H]4O[C@@H]4O[C@H](CO)[C@@H](O)[C@H](O)[C@H]4O)C(C)(C)[C@@H]3CC[C@]12C [ginsenoside Rb2]
[1]
  effect on ADH activity: reduced ADH activity
[2]
  effect on ALDH activity: increased ALDH activity

## CC(C)=CCC[C@](C)(O[C@@H]1O[C@H](CO[C@@H]2O[C@@H](CO)[C@H](O)[C@H]2O)[C@@H](O)[C@H](O)[C@H]1O)[C@H]1CC[C@]2(C)[C@@H]1[C@H](O)C[C@@H]1[C@@]3(C)CC[C@H](O[C@@H]4O[C@H](CO)[C@@H](O)[C@H](O)[C@H]4O[C@@H]4O[C@H](CO)[C@@H](O)[C@H](O)[C@H]4O)C(C)(C)[C@@H]3CC[C@]12C [ginsenoside Rc]
[1]
  effect on ADH activity: reduced ADH activity
[2]
  effect on ALDH activity: increased ALDH activity

## CC(C)=CCC[C@](C)(O[C@@H]1O[C@H](CO)[C@@H](O)[C@H](O)[C@H]1O)[C@H]1CC[C@]2(C)[C@@H]1[C@H](O)C[C@@H]1[C@@]3(C)CC[C@H](O[C@@H]4O[C@H](CO)[C@@H](O)[C@H](O)[C@H]4O[C@@H]4O[C@H](CO)[C@@H](O)[C@H](O)[C@H]4O)C(C)(C)[C@@H]3CC[C@]12C [ginsenoside Rd]
[1]
  effect on ADH activity: reduced ADH activity
[2]
  effect on ALDH activity: increased ALDH activity

## CC(C)=CCC[C@](C)(O[C@@H]1O[C@H](CO)[C@@H](O)[C@H](O)[C@H]1O)[C@H]1CC[C@]2(C)[C@@H]1[C@H](O)C[C@@H]1[C@@]3(C)CC[C@H](O)C(C)(C)[C@@H]3[C@@H](O[C@@H]3O[C@H](CO)[C@@H](O)[C@H](O)[C@H]3O[C@@H]3O[C@@H](C)[C@H](O)[C@@H](O)[C@H]3O)C[C@]12C [ginsenoside Re, reference compound]
[1]
  effect on ADH activity: did not have a significant effect on ADH activity
[2]
  effect on ALDH activity: did not have a significant effect on ALDH activity

## CC(C)=CCC[C@](C)(O[C@@H]1O[C@H](CO)[C@@H](O)[C@H](O)[C@H]1O)[C@H]1CC[C@]2(C)[C@@H]1[C@H](O)C[C@@H]1[C@@]3(C)CC[C@H](O)C(C)(C)[C@@H]3[C@@H](O[C@@H]3O[C@H](CO)[C@@H](O)[C@H](O)[C@H]3O)C[C@]12C [ginsenoside Rg1, reference compound]
[1]
  effect on ADH activity: did not have a significant effect on ADH activity
[2]
  effect on ALDH activity: did not have a significant effect on ALDH activity
